# Results taken from publication PMC6057745, “The dual role of chloride in synaptic vesicle glutamate transport” (eLife, 2018).
# Key:
# [1] = target: T1, VGLUT1 (Rattus norvegicus, UniProt Q62634); test: whole endosome patch clamp, outward glutamate currents; assay type: biochemical
# T1 construct: gene Slc17a7; full-length rat VGLUT1 fused to EGFP (pEGFP-N1); co-expressed with Rab5 Q79L-mCherry in HEK293T; whole endosome recording of isolated enlarged endosomes
# T1 sequence (Q62634 1-560): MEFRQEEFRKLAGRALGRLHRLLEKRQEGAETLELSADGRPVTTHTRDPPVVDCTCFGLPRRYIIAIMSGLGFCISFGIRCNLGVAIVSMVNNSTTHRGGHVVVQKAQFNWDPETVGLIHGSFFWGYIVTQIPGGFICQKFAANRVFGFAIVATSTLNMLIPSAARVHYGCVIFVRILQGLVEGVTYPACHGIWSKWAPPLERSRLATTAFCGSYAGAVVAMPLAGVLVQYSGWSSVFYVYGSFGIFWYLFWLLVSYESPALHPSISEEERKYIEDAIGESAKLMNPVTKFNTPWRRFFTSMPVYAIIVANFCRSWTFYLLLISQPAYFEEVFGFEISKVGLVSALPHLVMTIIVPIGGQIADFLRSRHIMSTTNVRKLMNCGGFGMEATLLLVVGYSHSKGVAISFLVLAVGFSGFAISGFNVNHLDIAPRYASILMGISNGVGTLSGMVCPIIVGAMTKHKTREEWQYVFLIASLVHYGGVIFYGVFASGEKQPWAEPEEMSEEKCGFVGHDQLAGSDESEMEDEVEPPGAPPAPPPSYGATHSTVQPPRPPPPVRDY
# Procedure: whole endosome patch clamp, outward glutamate currents on VGLUT1 | glutamate currents saturate with EC50376 µM
# [2] = target: T1, VGLUT1; test: whole endosome patch clamp, block of Cl- and glutamate currents; assay type: biochemical
Structure (SMILES),EC50 [1] [µM],IC50 [2] [µM]
N[C@@H](CCC(=O)O)C(=O)O [glutamate],376,
Cc1cc(-c2ccc(/N=N/c3ccc4c(S(=O)(=O)O)cc(S(=O)(=O)O)c(N)c4c3O)c(C)c2)ccc1/N=N/c1ccc2c(S(=O)(=O)O)cc(S(=O)(=O)O)c(N)c2c1O [Evans Blue],,~0.2
